Data as given in US12186397B2, “Adhesive cell tissue gels” (National Cheng Kung University, priority 2011, dated 2025).
“Also recorded” adds a separate entry of the source. Read-outs that look alike come from different tables or passages of the source.

Columns and labels:
Fibroblasts [1] = assay: Viability of cells in contact with crosslinking agents or gels with quenching agents (Example 2); format: cell-based
Method: Gels containing various ratios of reactive groups in crosslinking agents to those in the matrix molecules with quenching agents were prepared as indicated in Table 2. Normality was used to indicate the number of reactive groups in the crosslinking agents, the number of functional groups in the matrix molecules, or the number of moieties in the quenching agents. Live cells were seeded and added to the gels, and cell viability was observed. Crosslinking agents were divided into two groups: highly toxic and less toxic. Glutaraldehyde was one of the highly toxic crosslinking agents and epoxide and genipin were the less toxic crosslinking agents. The quenching agents tested were poly-L-lysine and γ-polyglutamic acid.
The above results were summarized from various sets of experiments. Specifically, final concentrations of 0.1 mN, 0.5 mN, 1 mN, and 5 mN of glutaraldehyde were tested alone or added to a gelatin or collagen solution in the presence of poly-L-Lysine as a quenching reagent.

NIH3T3 fibroblast cells = assay: Toxicity of collagen gels with crosslinking agents (Example 3); format: cell-based; conditions: for relative toxicity among the three crosslinking agents: collagen gels
Method: Gels were prepared from collagen with glutaraldehyde, EX-810, and genipin at 5 mN, 1 mN, 0.5 mN, and 0.1 mN, respectively. Out of the three crosslinking agents, glutaraldehyde was the most toxic and genipin was the least toxic. Normality was used to indicate the numbers of reactive groups in the crosslinking agents. NIH3T3 fibroblast cells were cultured with the gels and a culture medium in a 96-well plate at 4×10^4 cells per well. Cell viability was observed.

Fibroblasts [2] = test system: Fibroblasts
Method: The cytotoxic effect of the adhesive was evaluated by applying 10 μL of the adhesive to the center of a well of a 24-well plate. Fibroblasts (2.0×10^4 cell/well) were seeded and incubated at 37° C. with 5% CO2 for 38 hours. The number of viable cells was quantified by a hemacytometer.

Compound | fibroblast viability in gel (Fibroblasts [1]; 5 mN crosslinker and total 5 mN collagen and poly-L-lysine) | Viability of cells (Fibroblasts [1]; Normality ratio 1:1 of reactive groups in crosslinking agent to functional groups in matrix molecules and quenching agents) | Viability of cells (alive) (Fibroblasts [1]; Normality ratio 1:5) | Viability of cells (alive) (Fibroblasts [1]; Normality ratio 1:10) | Viability of cells (alive) (Fibroblasts [1]; Normality ratio 1:50) | Viability of cells (Fibroblasts [1]; Normality ratio 5:1 of reactive groups in crosslinking agent to functional groups in matrix molecules and quenching agents) | Viability of cells (alive) (Fibroblasts [1]; crosslinking agent only, 1 mN) | Viability of cells (Fibroblasts [1]; crosslinking agent only, ≥5 mN) | cell proliferation (NIH3T3 fibroblast cells; collagen gel, 1 mN crosslinker) | cells survived (NIH3T3 fibroblast cells; collagen gel, 1 mN crosslinker) | cell viability (NIH3T3 fibroblast cells; collagen gel, 5 mN crosslinker) | relative toxicity among the three crosslinking agents (NIH3T3 fibroblast cells) | cytotoxicity of the adhesive (Fibroblasts [2]) | Viability of cells (alive) (Fibroblasts [1]) | cell viability in gel (Fibroblasts [1]) | fibroblast viability in gel (Fibroblasts [1]) | Viability of cells (alive) (Fibroblasts [1]; 24 h, 0.1 mN) | cells survived (Fibroblasts [1]; 24 h, 0.1 mN) | cells adhered to the gel (NIH3T3 fibroblast cells; collagen gel, 0.1 mN crosslinker) | cell viability (NIH3T3 fibroblast cells; collagen gel, 0.5 mN crosslinker, 24 hours of culturing)
COC(=O)C1=CO[C@@H](O)[C@@H]2C(CO)=CC[C@H]12 [genipin] | some fibroblasts died; also recorded: most fibroblasts survived in the distal area | Some | 100% | 100% | 100% | All die | ≥80% | All die | no cell proliferation | over 80% | all cells died | least toxic | increased with elevated concentration of genipin | – | – | – | – | – | – | –
O=CCCCC=O [glutaraldehyde] | – | – | – | – | – | – | – | – | – | – | – | most toxic | – | 100% | most adjacent cells died | survived and proliferated like the control groups | ~20% | about 20% | 20% | most cells died
